Results from the supplement of paper PMC10307832.

Experiments:
Assay in all cases: relative viability (nuclei count vs DMSO), 5 days (fraction); higher = more cells survive
NCI-H2023 = tested on: NCI-H2023
In short: (§1)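 Nuclei were stained with Hoechst during a one-step fixation (final 0.05% Triton X-100, 1% formaldehyde, 1 ug/ml Hoechst) carried out 5 days after dosing, then counted on 4× images. The cells, lung cancer lines in 1536-well plates, had been dosed by pin tool the day after seeding with one drug alone or a fixed anchor-drug dose plus five library-drug doses (not always all listed) in √10 steps. Relative viability is the nuclei count in treated wells divided by that in vehicle wells, and each value is the median of duplicate plates.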

PC-3 [JPC-3] = tested on: PC-3 [JPC-3]
In short: as §1

HARA = tested on: HARA
In short: as §1

NCI-H2228 = tested on: NCI-H2228
In short: as §1

LC-2-ad = tested on: LC-2-ad
In short: as §1

NCI-H650 = tested on: NCI-H650
In short: as §1

EPLC-272H = tested on: EPLC-272H
In short: as §1

NCI-H838 = tested on: NCI-H838
In short: as §1

NCI-H1651 = tested on: NCI-H1651
In short: as §1

H3255 = tested on: H3255
In short: as §1

NCI-H23 = tested on: NCI-H23
In short: as §1

NCI-H441 = tested on: NCI-H441
In short: as §1

NCI-H1975 = tested on: NCI-H1975
In short: as §1

NCI-H2087 = tested on: NCI-H2087
In short: as §1

NCI-H1650 = tested on: NCI-H1650
In short: as §1

SW 1573 = tested on: SW 1573
In short: as §1

NCI-H727 = tested on: NCI-H727
In short: as §1

LOU-NH91 = tested on: LOU-NH91
In short: as §1

NCI-H2009 = tested on: NCI-H2009
In short: as §1

NCI-H2085 = tested on: NCI-H2085
In short: as §1

UMC-11 = tested on: UMC-11
In short: as §1

**Q.** `CN1CCN(CCOc2cc(OC3CCOCC3)c3c(Nc4c(Cl)ccc5c4OCO5)ncnc3c2)CC1` [Saracatinib] + CC(C)C[C@H](NC(=O)[C@H](Cc1ccccc1)NC(=O)c1cnccn1)B(O)O [Bortezomib] (partner 0.002 µM) was tested. Which relative viability (NCI-H2023; first compound 0.02 µM) did it give?
**A.** The relative viability was 1.1.

**Q.** And the relative viability (NCI-H2023; first compound 0.2 µM)?
**A.** The relative viability was 0.902.

**Q.** What about the relative viability (NCI-H2023; first compound 0.6325 µM) of the same compound?
**A.** The relative viability was 1.05.

**Q.** And the relative viability (NCI-H2023; first compound 2 µM)?
**A.** The relative viability was 0.906.

**Q.** And the relative viability (PC-3 [JPC-3]; first compound 0.02 µM)?
**A.** Its relative viability is 0.905.

**Q.** And the relative viability (PC-3 [JPC-3]; first compound 0.2 µM)?
**A.** The relative viability was 0.721.

**Q.** What about the relative viability (PC-3 [JPC-3]; first compound 0.6325 µM) of the same compound?
**A.** The relative viability was 0.778.

**Q.** And the relative viability (PC-3 [JPC-3]; first compound 2 µM)?
**A.** The relative viability was 0.486.

**Q.** What about the relative viability (HARA; first compound 0.02 µM) of the same compound?
**A.** Its relative viability is 1.12.

**Q.** And the relative viability (HARA; first compound 0.6325 µM)?
**A.** Its relative viability is 1.08.

**Q.** What about the relative viability (HARA; first compound 2 µM) of the same compound?
**A.** The relative viability was 0.602.

**Q.** And the relative viability (NCI-H2228; first compound 0.02 µM)?
**A.** Its relative viability is 1.05.

**Q.** And the relative viability (NCI-H2228; first compound 0.2 µM)?
**A.** The relative viability was 0.684.

**Q.** What about the relative viability (NCI-H2228; first compound 0.6325 µM) of the same compound?
**A.** Its relative viability is 1.2.

**Q.** What about the relative viability (NCI-H2228; first compound 2 µM) of the same compound?
**A.** Its relative viability is 0.652.

**Q.** And the relative viability (LC-2-ad; first compound 0.02 µM)?
**A.** Its relative viability is 1.15.

**Q.** And the relative viability (LC-2-ad; first compound 0.6325 µM)?
**A.** The relative viability was 1.12.

**Q.** And the relative viability (LC-2-ad; first compound 2 µM)?
**A.** Its relative viability is 0.843.

**Q.** What about the relative viability (NCI-H650; first compound 0.02 µM) of the same compound?
**A.** Its relative viability is 0.925.

**Q.** And the relative viability (NCI-H650; first compound 0.2 µM)?
**A.** The relative viability was 0.751.

**Q.** And the relative viability (NCI-H650; first compound 0.6325 µM)?
**A.** The relative viability was 0.947.

**Q.** And the relative viability (NCI-H650; first compound 2 µM)?
**A.** The relative viability was 0.799.

**Q.** And the relative viability (EPLC-272H; first compound 0.02 µM)?
**A.** The relative viability was 0.812.

**Q.** What about the relative viability (EPLC-272H; first compound 0.2 µM) of the same compound?
**A.** Its relative viability is 0.786.

**Q.** And the relative viability (EPLC-272H; first compound 0.6325 µM)?
**A.** The relative viability was 1.2.

**Q.** What about the relative viability (EPLC-272H; first compound 2 µM) of the same compound?
**A.** Its relative viability is 0.932.

**Q.** What about the relative viability (NCI-H838; first compound 0.02 µM) of the same compound?
**A.** The relative viability was 0.78.

**Q.** And the relative viability (NCI-H838; first compound 0.2 µM)?
**A.** Its relative viability is 0.702.

**Q.** What about the relative viability (NCI-H838; first compound 0.6325 µM) of the same compound?
**A.** Its relative viability is 0.482.

**Q.** And the relative viability (NCI-H838; first compound 2 µM)?
**A.** Its relative viability is 0.431.

**Q.** And the relative viability (NCI-H1651; first compound 0.02 µM)?
**A.** The relative viability was 0.962.

**Q.** What about the relative viability (NCI-H1651; first compound 0.2 µM) of the same compound?
**A.** The relative viability was 0.775.

**Q.** What about the relative viability (NCI-H1651; first compound 0.6325 µM) of the same compound?
**A.** The relative viability was 1.

**Q.** What about the relative viability (NCI-H1651; first compound 2 µM) of the same compound?
**A.** Its relative viability is 0.844.

**Q.** What about the relative viability (H3255; first compound 0.02 µM) of the same compound?
**A.** Its relative viability is 0.864.

**Q.** What about the relative viability (H3255; first compound 0.2 µM) of the same compound?
**A.** Its relative viability is 0.892.

**Q.** And the relative viability (H3255; first compound 0.6325 µM)?
**A.** Its relative viability is 0.812.

**Q.** What about the relative viability (H3255; first compound 2 µM) of the same compound?
**A.** Its relative viability is 0.272.

**Q.** What about the relative viability (NCI-H23; first compound 0.02 µM) of the same compound?
**A.** The relative viability was 1.09.

**Q.** What about the relative viability (NCI-H23; first compound 0.6325 µM) of the same compound?
**A.** Its relative viability is 0.95.

**Q.** And the relative viability (NCI-H23; first compound 2 µM)?
**A.** The relative viability was 1.12.

**Q.** And the relative viability (NCI-H441; first compound 0.02 µM)?
**A.** The relative viability was 0.451.

**Q.** And the relative viability (NCI-H441; first compound 0.2 µM)?
**A.** Its relative viability is 0.562.

**Q.** And the relative viability (NCI-H441; first compound 0.6325 µM)?
**A.** The relative viability was 1.03.

**Q.** And the relative viability (NCI-H441; first compound 2 µM)?
**A.** The relative viability was 0.831.

**Q.** What about the relative viability (NCI-H1975; first compound 0.02 µM) of the same compound?
**A.** The relative viability was 0.356.

**Q.** And the relative viability (NCI-H1975; first compound 0.6325 µM)?
**A.** Its relative viability is 0.443.

**Q.** What about the relative viability (NCI-H1975; first compound 2 µM) of the same compound?
**A.** The relative viability was 0.331.

**Q.** What about the relative viability (NCI-H2087; first compound 0.02 µM) of the same compound?
**A.** Its relative viability is 0.87.

**Q.** And the relative viability (NCI-H2087; first compound 0.2 µM)?
**A.** Its relative viability is 0.608.

**Q.** What about the relative viability (NCI-H2087; first compound 0.6325 µM) of the same compound?
**A.** Its relative viability is 0.856.

**Q.** And the relative viability (NCI-H2087; first compound 2 µM)?
**A.** The relative viability was 0.711.

**Q.** What about the relative viability (NCI-H1650; first compound 0.02 µM) of the same compound?
**A.** The relative viability was 0.179.

**Q.** What about the relative viability (NCI-H1650; first compound 0.2 µM) of the same compound?
**A.** Its relative viability is 0.192.

**Q.** What about the relative viability (NCI-H1650; first compound 0.6325 µM) of the same compound?
**A.** The relative viability was 0.24.

**Q.** What about the relative viability (NCI-H1650; first compound 2 µM) of the same compound?
**A.** The relative viability was 0.206.

**Q.** And the relative viability (SW 1573; first compound 0.02 µM)?
**A.** Its relative viability is 0.997.

**Q.** And the relative viability (SW 1573; first compound 0.2 µM)?
**A.** Its relative viability is 0.906.

**Q.** And the relative viability (SW 1573; first compound 0.6325 µM)?
**A.** Its relative viability is 0.955.

**Q.** What about the relative viability (SW 1573; first compound 2 µM) of the same compound?
**A.** The relative viability was 0.933.

**Q.** And the relative viability (NCI-H727; first compound 0.02 µM)?
**A.** Its relative viability is 0.923.

**Q.** And the relative viability (NCI-H727; first compound 0.2 µM)?
**A.** Its relative viability is 0.535.

**Q.** What about the relative viability (NCI-H727; first compound 0.6325 µM) of the same compound?
**A.** Its relative viability is 1.09.

**Q.** And the relative viability (NCI-H727; first compound 2 µM)?
**A.** Its relative viability is 0.506.

**Q.** And the relative viability (LOU-NH91; first compound 0.02 µM)?
**A.** The relative viability was 0.538.

**Q.** What about the relative viability (LOU-NH91; first compound 0.2 µM) of the same compound?
**A.** Its relative viability is 0.457.

**Q.** What about the relative viability (LOU-NH91; first compound 0.6325 µM) of the same compound?
**A.** The relative viability was 0.521.

**Q.** What about the relative viability (LOU-NH91; first compound 2 µM) of the same compound?
**A.** The relative viability was 0.533.

**Q.** And the relative viability (NCI-H2009; first compound 0.02 µM)?
**A.** Its relative viability is 1.01.

**Q.** What about the relative viability (NCI-H2009; first compound 0.2 µM) of the same compound?
**A.** Its relative viability is 0.912.

**Q.** What about the relative viability (NCI-H2009; first compound 0.6325 µM) of the same compound?
**A.** Its relative viability is 1.03.

**Q.** And the relative viability (NCI-H2009; first compound 2 µM)?
**A.** The relative viability was 0.747.

**Q.** And the relative viability (NCI-H2085; first compound 0.02 µM)?
**A.** Its relative viability is 1.07.

**Q.** And the relative viability (NCI-H2085; first compound 0.2 µM)?
**A.** Its relative viability is 0.91.

**Q.** And the relative viability (NCI-H2085; first compound 0.6325 µM)?
**A.** The relative viability was 1.13.

**Q.** What about the relative viability (NCI-H2085; first compound 2 µM) of the same compound?
**A.** Its relative viability is 1.11.

**Q.** What about the relative viability (UMC-11; first compound 0.02 µM) of the same compound?
**A.** Its relative viability is 0.667.

**Q.** What about the relative viability (UMC-11; first compound 0.6325 µM) of the same compound?
**A.** The relative viability was 0.64.

**Q.** What about the relative viability (UMC-11; first compound 2 µM) of the same compound?
**A.** The relative viability was 0.494.
